Assay results reported in patent US20190365774A1, “COMBINATION THERAPY OF BACE-1 INHIBITOR AND ANTI-N3PGLU ABETA ANTIBODY” (Eli Lilly and Company, priority 2016, published 2019).
Read-outs that look alike come from different tables or passages of the source.

What was measured:
Abeta 1-x = experiment: In vivo inhibition of beta-secretase, brain Abeta 1-x in PDAPP mice; conditions: young female PDAPP mice, three hours after dosing, vs vehicle
Excerpt: Several animal models, including mouse, guinea pig, dog, and monkey, may be used to screen for inhibition of beta-secretase activity in vivo following compound treatment. Animals used in this invention can be wild type, transgenic, or gene knockout animals. For example, the PDAPP mouse model, prepared as described in Games et al., Nature 373, 523-527 (1995), and other non-transgenic or gene knockout animals are useful to analyze in vivo inhibition of Abeta and sAPPbeta production in the presence of inhibitory compounds. Generally, 2 month old PDAPP mice, gene knockout mice or non-transgenic animals are administered compound formulated in vehicles, such as corn oil, beta-cyclodextran, phosphate buffers, PHARMASOLVE®, or other suitable vehicles via oral, subcutaneous, intra-venous, feeding, or other route of administration. One to twenty-four hours following the administration of compound, animals are sacrificed, and brains are removed for analysis of Abeta 1-x. “Abeta 1-x” as used herein refers to the sum of Abeta species that begin with residue 1 and end with a C-terminus greater than residue 28. This detects the majority of Abeta species and is often called “total Abeta”. Total Abeta peptides (Abeta 1-x) levels are measured by a sandwich ELISA, using monoclonal 266 as a capture antibody and biotinylated 3D6 as reporting antibody. (See May, et al., Journal of Neuroscience, 31, 16507-16516 (2011)).
For acute studies, compound or appropriate vehicle is administered and animals are sacrificed at about 3 hours after dosing. Brain tissue, is obtained from selected animals and analyzed for the presence of Abeta 1-x. After chronic dosing brain tissues of older APP transgenic animals may also be analyzed for the amount of beta-amyloid plaques following compound treatment.
For example, a 3, 10, and 30 mg/kg oral dose of Example 1, to young female PDAPP mice reduced Abeta 1-x peptide levels in brain hippocampus by 23% (non-significant), 43% (p<0.05), and 58% (p<0.01), respectively.

[1] = system: BACE1 activity in SH-SY5YAPP695Wt cells; experiment: SH-SY5YAPP695Wt whole cell assay (Abeta 1-40 / 1-42 ELISA); type: cell-based; conditions: Homo sapiens, Mean ± SEM, n = 4, 24 hours incubation
Protocol: (§1) To assess selectivity of BACE1 over BACE2, the test compound is evaluated in FRET-based enzymatic assays using specific substrates for BACE1 and BACE2 as described below. For in vitro enzymatic and cellular assays, the test compound is prepared in DMSO to make up a 10 mM stock solution. The stock solution is serially diluted in DMSO to obtain a ten-point dilution curve with final compound concentrations ranging from 10 μM to 0.05 nM in a 96-well round-bottom plate before conducting the in vitro enzymatic and whole cell assays.
The routine whole cell assay for the measurement of inhibition of BACE1 activity utilizes the human neuroblastoma cell line SH-SY5Y (ATCC Accession No. CRL2266) stably expressing a human APP695Wt cDNA. Cells are routinely used up to passage number 6 and then discarded.
SH-SY5YAPP695Wt cells are plated in 96 well tissue culture plates at 5.0×10^4 cells/well in 200 μL culture media (50% MEM/EBSS and Ham's F12, 1× each sodium pyruvate, non-essential amino acids and Na bicarbonate containing 10% FBS). The following day, media is removed from the cells, fresh media added then incubated at 37° C. for 24 hours in the presence/absence of test compound at the desired concentration range.
At the end of the incubation, conditioned media are analyzed for evidence of beta-secretase activity by analysis of Abeta peptides 1-40 and 1-42 by specific sandwich ELISAs. […]

human BACE2 (1-460):Fc = target: T1, human BACE2 (1-460):Fc (Homo sapiens, UniProt Q9Y5Z0); experiment: BACE2 TMEM27 FRET assay; type: biochemical
T1 construct: made in house; host or cells: HEK293 (transient, secreted into conditioned media, Protein A purified)
T1 sequence (Q9Y5Z0 21-460): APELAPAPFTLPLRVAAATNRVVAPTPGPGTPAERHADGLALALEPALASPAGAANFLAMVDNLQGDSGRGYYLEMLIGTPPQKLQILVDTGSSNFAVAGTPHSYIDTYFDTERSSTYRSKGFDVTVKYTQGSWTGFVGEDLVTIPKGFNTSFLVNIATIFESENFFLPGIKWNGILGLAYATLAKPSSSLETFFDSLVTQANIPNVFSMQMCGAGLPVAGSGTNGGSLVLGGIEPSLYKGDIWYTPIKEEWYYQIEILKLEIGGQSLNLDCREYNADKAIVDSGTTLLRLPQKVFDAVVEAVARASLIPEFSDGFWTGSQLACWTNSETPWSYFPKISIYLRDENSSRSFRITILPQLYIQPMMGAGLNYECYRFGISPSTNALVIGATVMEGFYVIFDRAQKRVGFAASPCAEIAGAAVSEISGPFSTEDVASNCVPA
Protocol: as §1
Human BACE1 (accession number: AF190725) and human BACE2 (accession number: AF 204944) are cloned from total brain cDNA by RT-PCR. […]
Conditioned media of HEK293 cell transiently transfected with huBACE1:Fc or huBACE2:Fc cDNA are collected. […] The purity of final product is assessed by electrophoresis in 4-20% Tris-Glycine SDS-PAGE. […]
Transmembrane protein 27 (TMEM27) (Accession Number NM_020665), also known as Collectrin) is a recently described substrate for BACE2, but not BACE1 (Esterhazy, et al, Cell Metabolism, 14, 365-377 (2011)). […] The RFU of the mixture at time 0 is recorded at excitation wavelength 430 nm and emission wavelength 535 nm. […] The RFU at the end of incubation is recorded with the same excitation and emission settings used at time 0. […]

## CC(F)(F)[C@H]1OC[C@]2(c3cc(NC(=O)c4cnc(-n5cncn5)cn4)ccc3F)N=C(N)SC[C@H]12 [Example 1, N-[3-[(4aS,5S,7aS)-2-Amino-5-(1,1-difluoroethyl)-4,4a,5,7-tetrahydrofuro[3,4-d][1,3]thiazin-7a-yl]-4-fluoro-phenyl]-5-(1,2,4-triazol-1-yl)pyrazine-2-carboxamide]
Abeta 1-x; 3 mg/kg oral, non-significant
  reduction of Abeta 1-x peptide levels in brain hippocampus: 23%
Abeta 1-x; 3 mg/kg oral, p<0.01
  reduction of Abeta 1-x levels in brain cortical tissue: 43%
Abeta 1-x; 10 mg/kg oral, p<0.01
  reduction of Abeta 1-x levels in brain cortical tissue: 59%
Abeta 1-x; 10 mg/kg oral, p<0.05
  reduction of Abeta 1-x peptide levels in brain hippocampus: 43%
Abeta 1-x; 30 mg/kg oral, p<0.01
  reduction of Abeta 1-x levels in brain cortical tissue: 73%
  reduction of Abeta 1-x peptide levels in brain hippocampus: 58%
[1]; read-out: SH-SY5YAPP695Wt A-beta (1-40) ELISA IC50
  IC50: 0.385 ± 0.163 nM
[1]; read-out: SH-SY5YAPP695Wt A-beta (1-42) ELISA IC50
  IC50: 0.381 ± 0.266 nM
Human BACE2 (1-460):Fc
  BACE2 IC50 / BACE1 IC50 ratio (fold selectivity for BACE1 over BACE2): about 400 fold
